Data on two molecules can be found in patent US6372727B1, “Metalloporphyrin treatment of neurologic disease” (UAB Research Foundation, priority 1999, dated 2002).

Where “and” joins values, the source holds several entries; their conditions need not be identical. Equal entries are not always repeated.

The nature of series [1]: MP-catalyzed peroxynitrite decomposition monitored at 302 nm. Format: biochemical. Conditions: 100 μM peroxynitrite.
Series [2] in a line: Ascorbate oxidation by MPs monitored at 266 nm. Format: biochemical. The note with it: MP 10 μM, 50 μM ascorbate, 0.1 M potassium phosphate pH 7.4, ± standard error, n=3.
The nature of series [3]: Peroxynitrite-mediated nitration of GYA peptide. Format: biochemical. Conditions: percent of added peroxynitrite.
In series [4] the test system is ALS-SOD1 (G93A) transgenic mice. The series is described as follows: Survival of ALS-SOD1 (G93A) transgenic mice. Format: in vivo. The procedure:
FIG. 13A: Transgenic mice (n=9) were injected intraperitoneally with 3 mg/kg/day of a low molecular weight (844.6) synthetic iron porphyrin. […] Treatment was continued until such time that signs of diaphragm weakness (labored breathing) necessitated sacrifice. A control group of transgenic mice was treated with vehicle only (phosphate-buffered saline). FIG. 13B: Transgenic mice were injected intraperitoneally with 1 mg/kg/day of a low molecular weight (844.6) synthetic iron porphyrin. Treatment began at day 60 prior to the onset of symptoms. A control group of transgenic mice was treated with vehicle only (phosphate-buffered saline).
Mice transgenic for the G93A mutated form of SOD1 are generally accepted as the standard model of motor neuron disease. […] This compound extended the mean survival time by 13 days (from 127 to 140 days) (FIG. 13A).
A group of G93A mice was treated with 1 mg/kg of FeTCPP intraperitoneally beginning at 60 days of age. As with the control group in FIG. 13A, none of the control group in this test survived past 132 days. However, the probability of survival at 140 days was about 37% and at approximately 180 days survival was still at 20%.

Setting [5] is: 1 mg/kg intraperitoneally beginning at 60 days of age.

With `C[n+]1ccc(-c2c3nc(c(-c4cc[n+](C)cc4)c4ccc([n-]4)c(-c4cc[n+](C)cc4)c4nc(c(-c5cc[n+](C)cc5)c5ccc2[n-]5)C=C4)C=C3)cc1.[Cl-].[Cl-].[Cl-].[Cl-].[Cl-].[Mn+3]` [MnTMPyP, Manganese (III) meso-tetra-(N-methyl-4-pyridyl)-porphine chloride], the “Rate Constants for MP-Catalyzed Decomposition of Peroxynitrite (pH 7.4, 37° C.)” value in series [1] (plus ascorbate 150 μM) is 1.8 × 10^6 ± 0.3 M^−1s^−1. The “Rate of Ascorbate Oxidation” value in series [2] is 6.77 ± 0.33 µM/min. Further, the “effect of HOCl on the MP” value (50 μM HOCl) was “appeared to destroy the metal-pyrrole center”. The “oxidation by H2O2” value (0.5 mM H2O2, 20 min) was “did not appear to oxidize”.
`O=C(O)c1ccc(-c2c3nc(c(-c4ccc(C(=O)O)cc4)c4ccc([n-]4)c(-c4ccc(C(=O)O)cc4)c4nc(c(-c5ccc(C(=O)O)cc5)c5ccc2[n-]5)C=C4)C=C3)cc1.[Fe+2]` [FeTCPP, Iron (III) meso 5,10,15,20-tetrakis-(4-carboxy-phenyl) porphyrin]: the “Rate Constants for MP-Catalyzed Decomposition of Peroxynitrite (pH 7.4, 37° C.)” value in series [1] (absence of added reductants) was 1.6×10^6 M^−1s^−1 and 2.9 × 10^6 M^−1s^−1 ± 0.4 M^−1s^−1. Further, the “average efficiency of nitration catalysis” value in series [3] stood at 22.7%. For the same molecule, the “Rate of Ascorbate Oxidation” value in series [2] amounted to 5.8 µM/min. Also, in series [4] (setting [5]), the “probability of survival at 140 days” value is “about 37%” and the “survival at approximately 180 days” value is reported as 20%. Further, in series [4] (5 mg/kg, treatment from onset of symptoms), the mean survival time turned out to be 140 days. The “extension of mean survival time” value in series [4] (5 mg/kg, treatment from onset of symptoms, versus vehicle) is on record as 13 days. The “progression of motor neuron death in mice” value in series [4] (G93A mutant of Cu,Zn superoxide dismutase transgene) is listed as “slow the progression of motor neuron death”. Further, the “upper limit of survival time” value in series [4] (administered at the onset of symptoms) is “about 148 days”.
